Source: patent publication US20220062233A1 (The Board of Trustees of the Leland Stanford Junior …, priority 2018, published 2022)
Like-named read-outs stand apart in the source and are kept apart here.

Legend:
[1] = target: T1, interaction between Supt4h and NGN (subunit of Supt5h) (Homo sapiens, UniProt O00267+P63272); experiment: Split Gaussia luciferase complementation assay (M2-8 Luciferase); format: cell-based; settings: M2-8 cells
T1 construct: expressed in transfected cells
Experimental: A. Split Gaussia Luciferase Complementation Assay […]
i: pNBR-X1-Supt4-Gluc1 and pNEBR-X1-NGN-Gluc2
The HA-Supt4h and Flag-NGN fragments are amplified by PCR using the plasmid pHA-Supt4h-YC and pFlag-NGN-YN and sub-cloned individually into pcDNA3.1-Gluc1 and pcDNA3.1-Gluc2 (described in “A highly sensitive protein-protein interaction assay based on Gaussia luciferase” published at Nat Methods. 2006 December; 3(12):977-9. Epub 2006 Nov. 12). Then HA-Supt4h-Gluc1 and Flag-NGN-Gluc2 are amplified by PCR and inserted to pNEBR-X1-Hygro (New England BioLabs), which contain RheoSwitch responsive element under the control of RheoSwitch ligand. […]
ii: pNEBR-X1-Supt4h-G1-NGN-G2
PCR products containing the sequence from 5XRE to polyA in pNEBR-X1-NGN-G2 are inserted to pNEBR-X1-Supt4h-G1 at Pcil site to generate Supt4h-G1 and NGN-G2 bidirectional under their own RheoSwitch responsive element and polyA in the same plasmid. […]
b. Stable Cloned Cell Line i: 293-R1 is a cloned cell line which is engineered to constitutively express RSL1 receptor/activator by transfecting HEK 293 cells with pNEBR-R1 plasmid (New England BioLabs) and selected with blasticidin. […]
ii: M2-8 is a cloned 293-R1 cell which can inducibly express pNEBR-X1-Supt4h-G1-NGN-G2 by addition of RSL1. Two point mutations ([…] and M110I) are introduced to the GL1 and GL2 for better stability according to “A high-throughput cell-based Gaussia luciferase reporter assay for identifying modulators of fibulin-3 secretion” published in J Biomol Screen. 2013 July; 18(6):647-58. The cell line is selected by hygromycin. […]
c. Cell Culture and Transfection Condition
All the HEK-293 cells and derivative clones are maintained in DMEM containing 10% FBS plus corresponding antibiotics (250 μg/ml hygromycin B, 10 μg/ml blasticidin or both) at 37° C., 5% CO2. All the transfections are done by using Lipofectamine 2000 (Invitrogen) according to the manufacturer's instructions. […]
d. Bioluminescence Assay from Cell Lysates
Plasmids harboring the Gluc1 and Gluc2 are co-transfected in a 1:1 ratio into 293-R1 cells plated on tissue culture treated 24-well plates using Lipofectamine 2000 according to the manufacturer's instructions. For stable M2-8 cells, the cells are directly plated into 96-well or 384-well white plates. Twenty-four hours later, RheoSwitch ligand with or without test compound is added to the cells for induction/drug treatment. After 24 hr, the cells are washed with PBS and the plate was stored at −20° C. overnight. Lysis buffer [30 mM Tris-HCl (pH 8.0) 5 mM NaCl, 0.1% Triton X-100] with 10 μg/ml native coelenterazine (Nanolight Technology) is then added to the cells at room temperature for one hour in the dark. After shaking for about 1 min, 40 μl of cell lysate are transferred to a white 96-well plate. For M2-8 in white micro plate, no transfer is needed. Signal intensities (integrated 100 ms) were read on Tecan Infinite M200 or M1000.
The split Gaussia luciferase complementation assay measures the interaction between Sup4h and NGN. NGN is the subunit of Supt5h that binds to Supt4h.

mutant HTT [2] = experiment: Mutant HTT assay in induced pluripotent stem cells (iPSC); format: cell-based, human; settings: HD patient iPSCs, one day incubation; numeric bounds; read-out: iPSC IC20 (nM) mHTT
Experimental: C. Mutant HTT Assay in Induced Pluripotent Stem Cells (iPSC) a. Cell Culturing and Compound Treatment
Huntington's disease patient iPSCs (ND50036 from NINDS) were detached into single cells by Accutase (25058CI from Corning), counted and plated on a 24-well plate coated with Matrigel (354277 from Corning) at density of 7,000 cells/well. After 48 hrs, compounds were added to the cell culture medium mTeSR1 (85850 from StemCell Technologies) and the cells were incubated for one day. The medium was then removed, and the cells were washed with PBS. After all liquid was removed, the plate was placed at −80° C. overnight. Lysis buffer [30 mM Tris-HCl (pH 8.0), 5 mM NaCl, 0.1% Triton X-100] with the complete proteinase inhibitor cocktail (5892791001 from Sigma-Aldrich) was then added to the cells. Cell samples were lysed on an orbital plate shaker at 4° C. at 700 rpm for 30 min. The supernatants from spinning (14 k rpm for 10 min) were collected. The protein concentrations were determined by BCA assay (23225 from Pierce, ThermoFisher). […]
b. Detection of Mutant HTT Protein
Equal amounts of protein lysate collected from each sample were added to a 96-well plate that had been coated with a human HTT specific monoclonal antibody. After washing away any unbound substances, a biotinylated anti-human mutant HTT specific detection antibody was added. Streptavidin-horseradish peroxidase was subsequently added, followed by TMB Substrate Solution, which yielded a blue product that turns yellow when the Stop Solution was added. The intensity of the color measured was in proportion to the amount of mutant HTT bound in the initial step. The mutant HTT values are then interpolated from a standard curve.

wild-type HTT = experiment: Wild-type HTT assay in lymphoblastoid cells (LBC), Western blot; format: cell-based, human
Experimental: (§1) B. Mutant and Wild-Type HTT Assay in Lymphoblastoid Cells (LBC)
(§2) a. Cell Culturing and Compound Treatment
(§3) Lymphoblastoid cells derived from a Huntington's disease patient with 250 CAG repeats in the mutant HTT allele (GM14044 from Coriell Institute) were cultured in RPMI 1640 (Corning Cellgro, 10-040-CV) containing fetal bovine serum (Atlanta Biologicals, S11150). 4×10^5 cells were seeded on a 24-well plate and incubated with testing compound for 3 days. The cell suspension was then transferred to a 1.5 ml Eppendorf tube. Cells were collected by centrifugation and washed once with PBS. After all liquid was removed, the cell pellet was placed at −80° C. for at least 10 minutes. Lysis buffer [30 mM Tris-HCl (pH 8.0), 5 mM NaCl, 0.1% Triton X-100] with the proteinase inhibitor cocktail (P8340 from Sigma-Aldrich) was then added to the cells. Following centrifugation (14 k rpm for 15 min at 4° C.), the supernatant was collected. The protein concentrations were determined by BCA assay (Pierce, ThermoFisher).
(§4) Equal amounts of protein were loaded onto 4-12% gel (Invitrogen, WG1403A). After electrophoresis, the gels were transferred to nitrocellulose membranes by wet transfer at 72V for 3 hrs. […] The protein levels of mutant HTT, wild-type HTT, TBP, and tubulin were determined by immunoblotting with anti-polyQ specific antibody (clone MW1), anti-Huntingtin antibody (Abcam, ab45169), anti-TBP antibody (Sigma, T1827) and anti-alpha tubulin antibody (Sigma, T9026). Blots were imaged on a Li-Cor Odyssey infrared imager. The band intensities were determined by Li-Cor Odyssey software.

mutant HTT [3] = experiment: Mutant HTT assay in lymphoblastoid cells (LBC), Western blot; format: cell-based, human; settings: read-out: LBC IC20 (nM) mHTT, 3 days compound treatment
Experimental: as §1, §2, §3, §4

M2-8 cells = experiment: M2-8 Cell viability Assay; format: cell-based; settings: at the concentration of 1000 nM
[4] = tested on: Lymphoblastoid cells (GM14044); experiment: LBC cell viability (Cell Titer-Glo); format: cell-based, human; settings: at the concentration of IC20, 3-day compound treatment
Experimental: Cell viability was determined by Cell Titer-Glo reagent (Promega, PRG9243). After 3-day compound treatment, 15 μl of cell suspension was taken out from plate and incubated with 10 μl of CTG reagent. The values of reaction mixture were detected by Tecan.

[5] = 3 days compound treatment, read-out: LBC IC20 (nM) wtHTT

Structure (SMILES)	IC50 [1] [µM]	IC20 (mutant HTT [2]) [nM]	IC20 (wild-type HTT; [5]) [nM]	IC20 (mutant HTT [3]) [nM]	M2-8 Cell viability (M2-8 cells)	LBC viability at IC20 [4]	IC20 (wild-type HTT; read-out: LBC IC20 (nM) wtHTT, 3 days compound treatment) [nM]
OB(O)c1cccc(CN[C@@H]2CCCc3c2[nH]c2ccc(Br)cc32)c1 (single isomer, unassigned) [Compound 39]	≤ 0.1	> 100	> 1000	> 1000	+ (cell viability is greater than 50% at the concentration of 1000 nM)		
COCC(N[C@@H]1CCCc2c1[nH]c1ccc(Br)cc21)c1ccc(C(C)(C)O)cc1 (single isomer, unassigned) [Compound 53]	0.101 to 0.3	> 100	> 500	> 1000	+ (cell viability is greater than 50% at the concentration of 1000 nM)		
Brc1ccc2[nH]c3c(c2c1)CCC[C@H]3NCc1cccc2ccccc12 [Compound 19, (R)-6-bromo-N-(naphthalen-1-ylmethyl)-2,3,4,9-tetrahydro-1H-carbazol-1-amine]	≤ 0.1		> 1000	101 to 300	+ (cell viability is greater than 50% at the concentration of 1000 nM)	* (cell viability is greater than 60% at the concentration of IC20)	
Nc1ccc(CN[C@@H]2CCCc3c2[nH]c2ccc(Br)cc32)cc1 [Compound 21, (R)—N-(4-aminobenzyl)-6-bromo-2,3,4,9-tetrahydro-1H-carbazol-1-amine]	≤ 0.1		> 1000	101 to 300	+ (cell viability is greater than 50% at the concentration of 1000 nM)	* (cell viability is greater than 60% at the concentration of IC20)	
COc1cccc(CN[C@@H]2CCCc3c2[nH]c2ccc(Br)cc32)c1 [Compound 24, (R)-6-bromo-N-(3-methoxybenzyl)-2,3,4,9-tetrahydro-1H-carbazol-1-amine]	≤ 0.1		> 1000	101 to 300	+ (cell viability is greater than 50% at the concentration of 1000 nM)	* (cell viability is greater than 60% at the concentration of IC20)	
COc1ccc(CN[C@@H]2CCCc3c2[nH]c2ccc(Br)cc32)cc1 [Compound 25, (R)-6-bromo-N-(4-methoxybenzyl)-2,3,4,9-tetrahydro-1H-carbazol-1-amine]	0.101 to 0.3		> 1000	301 to 1000	+ (cell viability is greater than 50% at the concentration of 1000 nM)	* (cell viability is greater than 60% at the concentration of IC20)	
N#Cc1ccc(CN[C@@H]2CCCc3c2[nH]c2ccc(Br)cc32)cc1 [Compound 26, (R)-4-(((6-bromo-2,3,4,9-tetrahydro-1H-carbazol-1-yl)amino)methyl)benzonitrile]	0.101 to 0.3			101 to 300	+ (cell viability is greater than 50% at the concentration of 1000 nM)	* (cell viability is greater than 60% at the concentration of IC20)	> 1000
COCc1ccc(CN[C@@H]2CCCc3c2[nH]c2ccc(Br)cc32)cc1 [Compound 27, (R)-6-bromo-N-(4-(methoxymethyl)benzyl)-2,3,4,9-tetrahydro-1H-carbazol-1-amine]	≤ 0.1		> 1000	101 to 300	+ (cell viability is greater than 50% at the concentration of 1000 nM)	* (cell viability is greater than 60% at the concentration of IC20)	
COCC(N[C@@H]1CCCc2c1[nH]c1ccc(Br)cc21)c1ccc(CN2CCOCC2)cc1 (stereo partly shown) [Compound 61]	0.101 to 0.3				+ (cell viability is greater than 50% at the concentration of 1000 nM)		
COCC(N[C@@H]1CCCc2c1[nH]c1ccc(Br)cc21)c1ccc(CN2CCN(C(C)=O)CC2)cc1 (stereo partly shown) [Compound 62]	0.101 to 0.3				+ (cell viability is greater than 50% at the concentration of 1000 nM)		
OCCOCc1ccc(CN[C@@H]2CCCc3c2[nH]c2ccc(Br)nc32)cc1 [Compound 64]	0.101 to 0.3				+ (cell viability is greater than 50% at the concentration of 1000 nM)		
OCc1ccc(CN[C@@H]2CCCc3c2[nH]c2ccc(Br)nc32)s1 [Compound 67]	≤ 0.1				+ (cell viability is greater than 50% at the concentration of 1000 nM)		
Brc1ccc2[nH]c3c(c2c1)CCC[C@H]3NCc1ccc(CN2CCOCC2)cc1 [Compound 72]	≤ 0.1				+ (cell viability is greater than 50% at the concentration of 1000 nM)		
CC(=O)N1CCN(Cc2ccc(CN[C@@H]3CCCc4c3[nH]c3ccc(Br)cc43)cc2)CC1 [Compound 73]	0.101 to 0.3				+ (cell viability is greater than 50% at the concentration of 1000 nM)		
